Measured values: article PMC8802628, “Selective activation of PFKL suppresses the phagocytic oxidative burst” (Cell, 2021)

Target: T1, PFKL (Homo sapiens, UniProt P17858)
T1 construct: endogenous in cells; host or cells: THP-1 cell lysate
T1 sequence (P17858 2-780 limits assumed): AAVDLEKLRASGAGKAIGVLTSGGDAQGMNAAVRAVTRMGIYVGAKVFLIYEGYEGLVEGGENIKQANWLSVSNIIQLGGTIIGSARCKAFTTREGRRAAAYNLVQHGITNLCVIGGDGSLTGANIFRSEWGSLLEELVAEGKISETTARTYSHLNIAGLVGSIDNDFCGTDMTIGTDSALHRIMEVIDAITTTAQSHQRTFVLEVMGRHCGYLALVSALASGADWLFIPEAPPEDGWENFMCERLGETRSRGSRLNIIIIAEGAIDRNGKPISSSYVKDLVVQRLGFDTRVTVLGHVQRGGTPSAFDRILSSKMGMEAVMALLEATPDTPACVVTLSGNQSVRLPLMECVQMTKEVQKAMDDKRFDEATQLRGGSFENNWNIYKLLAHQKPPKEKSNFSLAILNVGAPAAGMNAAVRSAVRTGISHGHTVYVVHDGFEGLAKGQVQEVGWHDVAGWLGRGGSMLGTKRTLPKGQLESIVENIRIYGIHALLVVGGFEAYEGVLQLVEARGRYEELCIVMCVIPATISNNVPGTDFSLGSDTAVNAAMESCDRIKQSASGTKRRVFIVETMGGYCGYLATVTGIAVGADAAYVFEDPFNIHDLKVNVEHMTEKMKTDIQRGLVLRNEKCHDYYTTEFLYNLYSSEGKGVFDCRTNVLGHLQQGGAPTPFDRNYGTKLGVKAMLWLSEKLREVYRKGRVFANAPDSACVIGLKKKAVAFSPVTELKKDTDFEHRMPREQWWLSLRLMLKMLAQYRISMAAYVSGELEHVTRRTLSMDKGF
Assay: Photoaffinity labeling pull-down in human blood leukocytes
Type: binding
Conditions: 1 μM probe, competition with 10 μM NA-11
Protocol: Buffy coats (100 mL) were diluted with ice-cold water (540 mL) for 30 s to lyse red blood cells. Following addition of 10 x HBSS buffer (50 mL) leukocytes were pelleted for 3 min at 300 x g, then washed twice in D-PBS and resuspended in RPMI medium. Cells (2 × 10^7) were plated on 15-cm dishes in DMSO vehicle, 1 μM PALP1 or 1 μM PALP6 for 30 min at 37°C. For competition, 10 μM NA-11 was added for 15 min, and then 1 μM PALP1 was added for an additional 30 min. To crosslink the photoaffinity probe, cells were UV-irradiated (High intensity mercury spot lamp, 100W, 365 nm, UVP) in RPMI for 5 min on ice. Cells were lysed in 200 μL 10 mM Tris pH 7.5, 150 mM NaCl, 1% NP-40, 2.5 mM MgCl2, 0.5 mM CaCl2, 2% glycerol, 10 μg/mL DNase-I, and 1 x EDTA-free Protease inhibitor cocktail. Lysates from 5 plates for each condition were pooled and incubate 10 min on ice.
Biotin-DADPS tagging, biotin-streptavidin affinity purification, and on-bead digestion were performed as described ([Hewings et al., 2018]). Briefly, lysates were cleared by centrifugation and the lysate concentration adjusted to 5 mg/mL. Streptavidin Ultralink Resin (100 μL of 50% slurry, Pierce) was washed twice with PBS and mixed with 1 mL of lysate for 30 min at room temperature. […]
For the classical TPP, quantitative data from each temperature were used to generate a thermal titration curve and calculate a melting point. […]

CC(=O)Nc1ccc2c(c1)OCc1cc(-c3ccccc3C#CCCCO)nn1C2 [NA-11]
photoaffinity labeling / pull-down of PFKL: competed effectively by NA-11
